Data as given in patent US20220296573A1, “NOVEL COMPOUNDS AND PHARMACEUTICAL COMPOSITIONS THEREOF FOR THE TREATMENT OF INFLAMMATORY DISORDERS” (Galapagos NV, priority 2019, published 2022).
In brackets after ≈: the same amount, converted by molar mass.

Assays:
human IRAK-4 = target: T1, human IRAK-4 (Homo sapiens, UniProt Q9NWZ3); test: Phosphorylation IC50 determination for human IRAK-4 (ADP-Glo Kinase Assay); conditions: human IRAK-4, substrate RIP140, Km ATP; read-out: IRAK4 ADPglo biochemical assay IC50
T1 construct: purchased Carna Biosciences 09 145
T1 sequence (Q9NWZ3 1-460): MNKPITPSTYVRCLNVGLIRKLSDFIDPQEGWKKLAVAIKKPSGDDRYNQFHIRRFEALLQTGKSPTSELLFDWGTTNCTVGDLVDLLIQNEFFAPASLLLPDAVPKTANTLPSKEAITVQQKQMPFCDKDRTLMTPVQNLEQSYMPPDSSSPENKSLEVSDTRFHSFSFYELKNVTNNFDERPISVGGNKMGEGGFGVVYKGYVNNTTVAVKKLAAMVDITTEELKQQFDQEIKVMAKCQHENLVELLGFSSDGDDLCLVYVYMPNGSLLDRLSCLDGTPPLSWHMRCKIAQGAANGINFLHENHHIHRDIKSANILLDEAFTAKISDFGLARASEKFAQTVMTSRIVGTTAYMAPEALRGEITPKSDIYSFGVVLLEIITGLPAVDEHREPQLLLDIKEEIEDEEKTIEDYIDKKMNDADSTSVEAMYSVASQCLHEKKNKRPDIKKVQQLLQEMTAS
Procedure: The phosphorylation of the substrate RIP140 (SEQ ID1) by IRAK4 at Km ATP was detected with the ADP-Glo Kinase Assay (Promega, Cat #V9103), a luminescent kinase assay which measures the ADP formed from a kinase reaction. (Zegzouti et al. 2009) In a second step the kinase reaction was terminated and all the remaining ATP was depleted. In a final step the ADP was converted into ATP and this newly synthesized ATP was measured by using a luciferase/luciferin reaction with a luminescent reader. The luminescent signal positively correlated with kinase activity, in particular kinase inhibition giving a decrease of the luminescent signal.
For the semi-automated assay, the positive control (100% inhibition) was prepared by diluting 10 mM staurosporine stock mixture (20 μL) in water (3.8 mL) and DMSO (180 μL), thus resulting in a […] staurosporine solution at 1% DMSO (final concentration after further dilution in the kinase reaction).
For the automated assay, no pre-dilution of the 10 mM staurosporine stock was made. 10 mM staurosporine was spotted directly in the assay plate using acoustic dispensing and complemented with DMSO to result in a similar final concentration as mentioned above.
For the semi-automated assay, the negative control (0% inhibition) was prepared by mixing water (3.8 mL) and DMSO (200 μL) resulting in a final concentration of 1% DMSO after further dilution in the kinase reaction. For the automated assay no pre-dilution of DMSO was done. 100% DMSO was spotted directly on the assay plate.
The assay buffer solution was prepared at a concentration corresponding to 5 fold the final (most diluted) assay concentration by mixing a solution of 125 mM TRIS pH 7.5+0.05% Triton X-100+2.5 mM EGTA (5.27 mL) with 1M mgCl2 (72 μL), 1M DTT (57.6 μL), and 200 mM MnCl2 (360 μL).
For example, for the semi-automated method, the enzyme-substrate mixture was prepared by mixing water (3999 μL), assay buffer solution (1380 μL), 1 mM RIP140 (138 μL—SEQ ID1), and 200 ng/mL IRAK 4 (3.45 μL Carna Biosciences, 09 145).
For semi-automated method, the ATP mixture was prepared at a concentration corresponding to 2.5 fold the final (most diluted) assay concentration of the semi-automated method and 1.5 fold the final (most diluted) assay concentration of the automated method. For example, for the semi-automated method, the ATP mixture was prepared by mixing water (4126 μL), assay buffer solution (1380 μL), and 10 mM ATP (13.80 μL).
The assay are performed either in a semi-automated or fully automated manner. The assay volume and the incubation time of the ADP detection were different accordingly the method used.
The compounds were prepared as a serial dilution of 10 point dose responses with 1/5 dilution steps in 100% DMSO starting from 2 mM highest concentration, diluted 1/20 in water. 1 μL was transferred dry to the assay plates.
On each assay plate 32 wells of each control (positive & negative) were added, followed by 2 μL enzyme-substrate mixture.
The reaction was started by adding 2 μL diluted ATP (final concentration Km ATP) on the assay plates. Plates were centrifuged for a few seconds at 1000 rpm followed by an incubation at r.t. for 120 min.
The reactions were stopped and the unconsumed ATP was depleted by adding 5 μL ADP-glo Reagent (Promega, Cat #V9103) to the reaction. The plates were quickly centrifuged at 1000 rpm and incubated at r.t. for 40 min corresponding to full ATP depletion.
The ADP was converted back to ATP and luciferase and luciferin were introduced to detect ATP by adding 10 μL kinase detection reagent (Promega, Cat #V9103) to the reaction. The plates were centrifuged for a few seconds at 1000 rpm and incubated at r.t. for a further 30 min.
Luminescent read out was performed on an Envision luminescent reader (Perkin Elmer).
For the automated assay, the compounds were prepared as a serial dilution of 10 point dose responses with 1/5 dilution steps in 100% DMSO starting from 2 mM highest concentration. […]

Human Hepatocyte = test: Metabolic stability in human hepatocytes; format: in vitro ADME; conditions: human cryopreserved hepatocytes, 1 μM
Procedure: (§1) The aim of this assay is to determine the metabolic stability of the compound in hepatocytes (cryopreserved) of different species. Low hepatocyte stability may result in the formation of unwanted metabolites, high clearance, and therefore is not desirable.
(§2) A 10 mM stock solution of test compound in DMSO was first diluted in DMSO to 3 mM, and then in modified Krebs-Henseleit buffer (Sigma, K3753) to 5 μM. This compound dilution was added to a suspension of pooled cryopreserved hepatocytes (BioreclamationIVT) at 37° C. under gentle shaking.
(§3) Final reaction conditions were: 1 μM of test compound, 0.03% DMSO, 0.5 million viable hepatocytes/mL, and 75 μL incubation volume.
(§4) Testosterone (1 μM) and 7-hydroxycoumarin (1 μM) were used, respectively as phase I and phase II metabolic reaction controls.
(§5) After 0, 10, 20, 45, 90, 120 and 180 min of incubation, the reaction was terminated with 225 μL of MeCN:MeOH (2:1) containing 100 ng/mL of diclofenac as analytical internal standard. Samples were mixed, centrifuged and the supernatant analyzed by LC-MS/MS.
(§6) The instrument responses (ratios of test compound and internal standard peak areas) were referenced to the zero time point samples (considered as 100%) in order to determine the percentage of compound remaining.
(§7) Plots of percentage compound remaining were used to determine the intrinsic clearance in the hepatocyte incubations using the following equations:
(§8) Scaled Clint [L/h/kg]=Clint [μL/min/10^6 cells]*#(10) cells/g liver*60*(1/10^6) Scaled Clint unbound [L/h/kg]=Clint [L/h/kg]/Fu,inc where: fu,inc equals hepatocyte binding, derived from microsomal binding (fu,mic) by following equation: […]

Mouse Hepatocyte = test: Metabolic stability in mouse hepatocytes; format: in vitro ADME; conditions: mouse cryopreserved hepatocytes, 1 μM
Procedure: as §1, §2, §3, §4, §5, §6, §7, §8

Thermodynamic solubility = format: physicochemical; conditions: Fasted State Simulated Intestine Fluid (FaSSIF), 37 °C, fassif, thermodynamic from solid, Fasted State Simulated Intestine Fluid, read-out: Tsol FaSSIF
Procedure: In a 8 mL glass vial, 1-2 mg of dry matter of compound were added and stirred with the suitable buffers (Fed State Simulated Intestine Fluid, FeSSIF, or Fasted State Simulated Intestine Fluid, FaSSIF, or Fasted State Simulated Gastric Fluid, FaSSGF, or phosphate buffer pH 7.4) for 24 h at r.t. (for the buffer pH 7.4) or 37° C. (for the GI fluids). The concentration of the mixture was 1 mg/mL.
A volume of 1000 μL were sampled, centrifuged for 10 min at 10 000 rpm and 500 μL of the supernatant were filtered on captiva plate. The samples are diluted in duplicates in DMSO (F100 and F10). Then, a final dilution (F100) in 80/20 H2O/MeCN containing the internal standard (warfarin) was used for LCMS-MS analysis.
A standard curve was made starting from a 40,000 ng/mL stock in DMSO, freshly prepared from dry matter. Then, successive concentrations at 15,000, 11,000, 6,000, 2,500, 1,000, 375, 150 and 75 ng/mL in DMSO were prepared.
Three quality control samples were made: one of 10,000, 1,500 and 200 ng/mL in DMSO, also starting from the DMSO working stock solution at 40,000 ng/mL.
The standard curve and quality controls were diluted a F100 in 80/20 H2O/MeCN (with internal standard) and analyzed on LC/MS-MS (API4000 or API5500).
The samples were analyzed on LC-MS with a flow rate of 0.6 mL/min. The mobile phase A was 0.1% formic acid in water and the mobile phase B was 0.1% formic acid in 90% MeCN and 10% of water. The sample was run under positive or negative ion spray on Pursuit C18—5 μm (2.0×20 mm) column, from Agilent.
The ratio analyte/internal standard peaks areas of the standard curve were plotted in a graph and a linear or polynomial of the second order equation was used to calculate the unknown concentrations of the test compound.
Solubility values were reported in μM and g/mL.

SMILES | IC50 (human IRAK-4) | Human Hepatocyte stability (Perc. remaining at 90 min) (Human Hepatocyte) | Mouse Hepatocyte stability (Perc. remaining at 90 min) (Mouse Hepatocyte) | solubility thermodynamic at 24 h (Thermodynamic solubility)
O=C(Nc1cn2cc(C3CCOCC3)nc2cc1C(=O)NCC(F)F)c1cccc(C(F)(F)F)n1 [Compound 17, N-(2,2-difluoroethyl)-2-(tetrahydro-2H-pyran-4-yl)-6-(6-(trifluoromethyl)picolinamido)imidazo[1,2-a]pyridine-7-carboxamide] | 5 to 10 nM | – | – | –
O=C(Nc1cn2cc(C3CCOCC3)nc2cc1C(=O)NC1CC1)c1cccc(C(F)(F)F)n1 [Compound 15, N-cyclopropyl-2-(tetrahydro-2H-pyran-4-yl)-6-(6-(trifluoromethyl)picolinamido)imidazo[1,2-a]pyridine-7-carboxamide] | 10 to 50 nM | – | – | –
CNC(=O)c1cc2nc(C3COCCO3)cn2cc1NC(=O)c1cccc(C(C)(F)F)n1 (stereo not shown) [Compound 14, 6-(6-(1,1-difluoroethyl)picolinamido)-2-(1,4-dioxan-2-yl)-N-methylimidazo[1,2-a]pyridine-7-carboxamide] | 0.1 to 5 nM | 100.05 Perc. | 67.65 Perc. | –
O=C(Nc1cn2cc(C3CCOCC3)nc2cc1C(=O)NC1COC1)c1cccc(C(F)(F)F)n1 [Compound 22, N-(oxetan-3-yl)-2-(tetrahydro-2H-pyran-4-yl)-6-(6-(trifluoromethyl)picolinamido)imidazo[1,2-a]pyridine-7-carboxamide] | 10 to 50 nM | – | – | –
O=C(Nc1cn2cc(C3CCOCC3)nc2c(F)c1OCC(F)F)c1cccn(C2CC2)c1=O [Compound 19, 1-cyclopropyl-N-(7-(2,2-difluoroethoxy)-8-fluoro-2-(tetrahydro-2H-pyran-4-yl)imidazo[1,2-a]pyridin-6-yl)-2-oxo-1,2-dihydropyridine-3-carboxamide] | 10 to 50 nM | 56.6 Perc. | 76.5 Perc. | –
COc1cc2nc(C3COCCO3)cn2cc1NC(=O)c1cccn(C)c1=O (stereo not shown) [Compound 10, N-(2-(1,4-dioxan-2-yl)-7-methoxyimidazo[1,2-a]pyridin-6-yl)-1-methyl-2-oxo-1,2-dihydropyridine-3-carboxamide] | 10 to 50 nM | 99.95 Perc. | – | 86.2 µg/mL (≈ 224 µM)
CCNC(=O)c1cc2nc(C3CCOCC3)cn2cc1NC(=O)c1cccc(C(F)(F)F)n1 [Compound 16, N-ethyl-2-(tetrahydro-2H-pyran-4-yl)-6-(6-(trifluoromethyl)picolinamido)imidazo[1,2-a]pyridine-7-carboxamide] | 10 to 50 nM | – | – | –
CC(C)(C)NC(=O)c1cc2nc(C3CCOCC3)cn2cc1NC(=O)c1cccc(C(F)(F)F)n1 [Compound 18, N-(tert-butyl)-2-(tetrahydro-2H-pyran-4-yl)-6-(6-(trifluoromethyl)picolinamido)imidazo[1,2-a]pyridine-7-carboxamide] | 10 to 50 nM | – | – | –
COc1cc2nc(C3COCCO3)cn2cc1NC(=O)c1cccc(C(F)(F)F)n1 (stereo not shown) [Compound 4, N-[2-(1,4-dioxan-2-yl)-7-methoxy-imidazo[1,2-a]pyridin-6-yl]-6-(trifluoromethyl)pyridine-2-carboxamide] | 0.1 to 5 nM | 85.9 Perc. | 103.55 Perc. | –
O=C(Nc1cn2cc(C3CCOCC3)nc2cc1C(=O)NCC(F)(F)F)c1cccc(C(F)(F)F)n1 [Compound 21, 2-(tetrahydro-2H-pyran-4-yl)-N-(2,2,2-trifluoroethyl)-6-(6-(trifluoromethyl)picolinamido)imidazo[1,2-a]pyridine-7-carboxamide] | 10 to 50 nM | – | – | –
COc1cc2nc(C3CCS(=O)(=O)CC3)cn2cc1NC(=O)c1cccn(C)c1=O [Compound 24, N-(2-(1,1-dioxidotetrahydro-2H-thiopyran-4-yl)-7-methoxyimidazo[1,2-a]pyridin-6-yl)-1-methyl-2-oxo-1,2-dihydropyridine-3-carboxamide] | 10 to 50 nM | – | – | –
